Measurements from patent US20200399632A1, “SENSOR SYSTEMS” (enEvolv, Inc., priority 2018, published 2020).

Experiments:
[1] = system: E. coli BW25113 Δptsl::kanR pSENSORGFP-PtsI sensor strain; experiment: GFP fluorescence of sensor cells encapsulated in droplets with naringenin (microscope); type: cell-based; settings: 500 μM naringenin with sensor cells; 33° C., 48 hours; FIG. 5d
From the text: FIGS. 4A-B establish co-culturing of producer cells and sensor cells as a viable strategy for screening. Sensor cells were engineered in an E. coli BW25113 Δptsl::kanR background, which is unable to grow on glucose as a sole carbon source. The glucose transporter ptsl and fluorescence reporter gfp were expressed co-cistronically under the control of a TtgR-regulated promoter on the plasmid pSENSORGFP-PtsI, such that growth and the magnitude of GFP signal are naringenin-dependent. […] Following incubation, the water-in-oil droplets were encapsulated in another aqueous phase, generating water-in-oil-in-water droplets, which were observed on a standard fluorescence activated cell sorter (FACS). […]
2E6 pNARnull, 2E6 pNAR^low, 2E6 pNARhigh, were co-cultured with the E. coli BW25113 Δptsl::kanR pSENSORGFP-PtsI sensor strain described in Example 3. […] Double emulsions were analyzed under the microscope prior to FACS analysis. […]

[2] = system: TtgR; experiment: TtgR sensor GFP response of MAGE-engineered E. coli MG1655 mutants to exogenously applied naringenin; type: cell-based; settings: naringenin 0, 31, 63 or 125 μM; three MAGE-engineered E. coli MG1655 clones, medium-copy plasmid with TtgR and gfp
From the text: The three clones were transformed with a medium-copy plasmid harboring TtgR and gfp under the control of an engineered ttgAp promoter. […] No naringenin pathway enzymes were present during these experiments, eliminating any interference by endogenously produced naringenin. The variation was not resolved upon transferring the sensor system to the genome (not shown) or switching to a high-copy sensor plasmid (FIG. 2A).

[3] = Diffusion between droplets: naringenin droplets co-incubated with sensor cell droplets; type: physicochemical; settings: droplets with 500 μM naringenin mixed with sensor cell droplets; 1% Ran Fluorosurfactant in HFE7500; FIG. 6
Method: FIG. 6 is an image showing fluorescence of two sets of droplet co-incubated for 24 hours. The first set of droplets contained 500 μM naringenin and the second set of droplets contained naringenin sensor cells. If diffusion was occurring between the droplets, the sensor cells would become fluorescent over the 24 hour period.
2E6 pNARnull, 2E6 pNAR^low, 2E6 pNARhigh, were co-cultured with the E. coli BW25113 Δptsl::kanR pSENSORGFP-PtsI sensor strain described in Example 3. The four cultures were grown overnight in LB medium, subdiluted 1 to 100 in minimal medium supplemented with the appropriate antibiotic and then grown into log phase. Once in log phase, the E. coli were rinsed 3× with 1× filtered M9 salts and then diluted to an OD600 of 1.0. The 2E6 strains were diluted to an OD600 of 0.01 to ensure that a single producer strain is present in each encapsulated droplet and the sensor cells were diluted to 0.1 to ensure that each droplet gets at least 5 sensor cells. Six sets of droplets were produced, (1) sensor cell only, (2) sensor cell with 500 μM naringenin, (3) 2E6 pNARhigh with sensor cell and 1 mM IPTG, (4) 2E6 pNARnull with sensor cell and 1 mM IPTG, (5), 2E6 pNARlow with sensor cell and 1 mM IPTG, and (6) naringenin only droplets. […] Double emulsions were analyzed under the microscope prior to FACS analysis. […]

O=C1C[C@@H](c2ccc(O)cc2)Oc2cc(O)cc(O)c21 [naringenin]
fluorescence of positive control droplets [1]: very fluorescent
GFP expression induced in TtgR sensor strains [2]: induced different levels of GFP expression
diffusion between droplets [3]: no diffusion between droplets
